Data from patent US20230127258A1, “COMPOSITION COMPRISING THROMBIN DERIVED PEPTIDES AND USE THEREOF” (In2Cure AB, priority 2019, published 2023).

Experiments:
[1] = system: S. aureus, P. aeruginosa and E. coli; assay: MIC and MBC of TCP-25 with EDTA, text summary for all three bacterial strains (FIG. 20B-C); format: cell-based
Protocol: The minimal inhibitory concentration (MIC) was conducted according to standard protocol (Wiegand et al., 2008). A 1% bacterial solution was diluted 1:1000 times in 2×BBL™ Mueller Hinton (MH) II, cation adjusted broth (Becton, Dickinson and Company, Sparks, USA). […] Next, 50 μl of the bacterial solution was added. MH broth without bacteria was used as a sterile control, whereas supplemented only with bacteria as growth control. […] MIC was assessed as the lowest concentration of treatment that prevents visual bacterial growth in the wells. The MIC plates were then used to determine the minimal bactericidal concentration (MBC) for the various treatments. This was conducted by resuspending the solution in each well with a pipette and then plating 10 μl droplets on a THA plates which were then incubated in 37° C. overnight. MBC was established at concentration at which no bacterial colonies were observed.

[2] = system: LPS / TLR4- and TLR2-induced NF-kB activation; details: cited from earlier work
[3] = system: P. aeruginosa-induced sepsis and LPS-mediated shock; details: mouse models of endotoxic shock; cited from earlier work

| Compound | antibacterial effect of EDTA alone [1] | anti-endotoxic functions [2] | mortality [3] |
| --- | --- | --- | --- |
| O=C(O)CN(CCN(CC(=O)O)CC(=O)O)CC(=O)O [EDTA, ethylenediaminetetraacetic acid] | some bacteriostatic effect |  |  |
| HVFRLKKWIQKVIDQFGE (TCP-25 fragment; PEPTIDE (1)..(18) TCP-25 fragment) [HVF18] |  | anti-endotoxic functions in vitro and in vivo | reduce mortality |
